The values that follow come from patent publication US20230085307A1, “PYRIDAZINONE COMPOUND AND HERBICIDE” (NISSAN CHEMICAL CORPORATION, priority 2019, published 2023).

For assay [1], the system named is wild oat. As to the kind of experiment: Test Example 4: herbicidal effect by soil treatment (Table 19, symbol I). It is filed as in vivo, wild oat (Avena fatua). The note with it: amount of applied herbicide 320 g/ha. In short, it runs like this: (§1)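 Scoring uses the grading scale of an earlier test, three weeks post-application. Treatment consists of spraying a diluted emulsion formulation across the surface of sterilized diluvial soil in which seeds are buried near 1.5 cm deep; boxes are kept in a greenhouse between 25° C. and 30° C.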

Assay [2] has as its system windgrass. As to the kind of experiment: Test Example 5: herbicidal effect by foliage application, plastic box (Table 20, symbol L). The note with it: foliage application, 320 g/ha, three weeks after application. It is filed as in vivo, windgrass (Apera spica-venti). Put shortly:
(§2)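 Post-emergence foliar test in sterilized diluvial soil. Compound applied as water-diluted emulsion at a predetermined rate to 14-day-old plants; evaluation at three weeks.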

The test system of assay [3] is barnyard grass. As to the kind of experiment: Test Example 3: herbicidal effect by foliage application, Wagner pot (Table 18, symbol H). It is filed as in vivo, barnyard grass (Echinochloa crus-galli). Conditions: 320 g/ha. In short, it runs like this: (§3)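 Plants were sown in alluvial soil held under 0.1–0.5 cm standing water and grown 14 days in a greenhouse at 25–30 °C. An emulsifiable formulation, water-diluted to the set dose, was then sprayed onto the foliage, and effects were scored three weeks later using previously defined criteria.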

Assay [4] concerns southern crabgrass. As to the kind of experiment: Test Example 5: herbicidal effect by foliage application, plastic box (Table 20, symbol F). It is filed as in vivo, southern crabgrass (Digitaria ciliaris). Conditions: foliage application, 320 g/ha, three weeks after application. Put shortly:
as §2

Assay [5] has as its system oval-leafed pondweed. As to the kind of experiment: Test Example 1: herbicidal activity, application before weed generation under submerged conditions (Table 16, symbol C). It is filed as in vivo, oval-leafed pondweed (Monochoria vaginalis). The note with it: amount of applied herbicide 320 g/ha. In short, it runs like this: (§4)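 Alluvial soil was flooded to 4 cm depth, weed seeds were sown mixed and 2.5-leaf rice seedlings were transplanted. On sowing day, the compound's emulsion, diluted in water to a set dose, was applied to the water surface. Plants grew at 25–30 °C and were scored 0–5 after three weeks.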

The test system of assay [6] is persian speedwell. Kind of assay: Test Example 5: herbicidal effect by foliage application, plastic box (Table 20, symbol R). It is filed as in vivo, Persian speedwell (Veronica persica). The note with it: foliage application, 320 g/ha, three weeks after application. In short, it runs like this:
as §2

Assay [7] deals with blackgrass. Kind of assay: Test Example 5: herbicidal effect by foliage application, plastic box (Table 20, symbol J). It is filed as in vivo, blackgrass (Alopecurus myosuroides). The note with it: foliage application, 320 g/ha, three weeks after application. Put shortly: as §2
Assay [8] concerns barnyard grass. Kind of assay: Test Example 5: herbicidal effect by foliage application, plastic box (Table 20, symbol H). The note with it: foliage application, 320 g/ha, three weeks after application. It is filed as in vivo, barnyard grass (Echinochloa crus-galli). In short, it runs like this: as §2
The test system of assay [9] is redroot pigweed. As to the kind of experiment: Test Example 4: herbicidal effect by soil treatment (Table 19, symbol N). It is filed as in vivo, redroot pigweed (Amaranthus retroflexus). Conditions: amount of applied herbicide 320 g/ha. In short, it runs like this: as §1
Assay [10] deals with southern crabgrass. Kind of assay: Test Example 4: herbicidal effect by soil treatment (Table 19, symbol F). It is filed as in vivo, southern crabgrass (Digitaria ciliaris). Conditions: amount of applied herbicide 320 g/ha. In short, it runs like this: as §1
The test system of assay [11] is Italian ryegrass. Kind of assay: Test Example 4: herbicidal effect by soil treatment (Table 19, symbol K). It is filed as in vivo, Italian ryegrass (Lolium multiflorum). Conditions: amount of applied herbicide 320 g/ha. Put shortly:
as §1

For assay [12], the system named is lambsquarters. As to the kind of experiment: Test Example 5: herbicidal effect by foliage application, plastic box (Table 20, symbol O). It is filed as in vivo, lambsquarters (Chenopodium album). The note with it: foliage application, 320 g/ha, three weeks after application. Put shortly:
as §2

Assay [13] relates to Chinese sprangletop. As to the kind of experiment: Test Example 3: herbicidal effect by foliage application, Wagner pot (Table 18, symbol D). It is filed as in vivo, chinese sprangletop (Leptochloa chinensis). Conditions: 320 g/ha. Put shortly:
as §3

Assay [14] has as its system wild oat. As to the kind of experiment: Test Example 5: herbicidal effect by foliage application, plastic box (Table 20, symbol I). It is filed as in vivo, wild oat (Avena fatua). Conditions: foliage application, 320 g/ha, three weeks after application. In short, it runs like this: as §2
The test system of assay [15] is Japanese bulrush. Kind of assay: Test Example 1: herbicidal activity, application before weed generation under submerged conditions (Table 16, symbol B). It is filed as in vivo, Japanese bulrush (Schoenoplectus juncoides). The note with it: amount of applied herbicide 320 g/ha. In short, it runs like this: as §4
The test system of assay [16] is blackgrass. Kind of assay: Test Example 4: herbicidal effect by soil treatment (Table 19, symbol J). It is filed as in vivo, blackgrass (Alopecurus myosuroides). The note with it: amount of applied herbicide 320 g/ha. Put shortly: as §1

As for `CCOc1ccccc1-c1sc2cc(Cl)ccc2c1-c1c(O)c(C)nn(C)c1=O` [3-039], the “I: wild oat, herbicidal effect grade” value in [1] was 0 (Herbicidal rate of 5% or less (almost no effect)); in assay [14], 1 (Herbicidal rate of 5% or more and less than 20%). Moreover, the “L: windgrass, herbicidal effect grade” value in assay [2] was 4 (Herbicidal rate of 70% or more and less than 90%). The “herbicidal effect on barnyard grass (H)” value in assay [3] is 4 (Herbicidal rate of 70% or more and less than 90%). For the same compound, the “F: southern crabgrass, herbicidal effect grade” value (“F: southern crabgrass” for short) in [4] and in [10] was 5 (Herbicidal rate of 90% or more (almost completely withered)) each time. Moreover, the “Herbicidal effect, C: oval-leafed pondweed” value (from here on “Herbicidal effect, C”) in [5] was 0 (Herbicidal rate of 5% or less (almost no effect)). Further, in assay [6], the “R: persian speedwell, herbicidal effect grade” value (from here on “R: persian speedwell”) is 5 (Herbicidal rate of 90% or more (almost completely withered)). Moreover, the “J: blackgrass, herbicidal effect grade” value in [7] was 4 (Herbicidal rate of 70% or more and less than 90%); in assay [16] it was 0 (Herbicidal rate of 5% or less (almost no effect)). Also, the “H: barnyard grass, herbicidal effect grade” value (“H: barnyard grass” for short) in assay [8] is recorded as 5 (Herbicidal rate of 90% or more (almost completely withered)). Also, the “N: redroot pigweed, herbicidal effect grade” value (from here on “N: redroot pigweed”) in [9] was 4 (Herbicidal rate of 70% or more and less than 90%). Besides, the “K: Italian ryegrass, herbicidal effect grade” value (shortened to “K: Italian ryegrass”) in assay [11] is given as 0 (Herbicidal rate of 5% or less (almost no effect)). The “O: lambsquarters, herbicidal effect grade” value (“O: lambsquarters” for short) in [12] was 3 (Herbicidal rate of 40% or more and less than 70%). The “herbicidal effect on Chinese sprangletop (D)” value (“herbicidal effect … (D)” for short) in assay [13] is 3 (Herbicidal rate of 40% or more and less than 70%). Further, the “Herbicidal effect, B: Japanese bulrush” value in assay [15] was 1 (Herbicidal rate of 5% or more and less than 20%).
As to `COc1cc(F)ccc1-c1sc2cc(Cl)ccc2c1-c1c(O)c(C)nn(C)c1=O` [3-043], the “I: wild oat, herbicidal effect grade” value is 0 (Herbicidal rate of 5% or less (almost no effect)) in assay [1]; 4 (Herbicidal rate of 70% or more and less than 90%) in assay [14]. Moreover, the “L: windgrass, herbicidal effect grade” value in [2] is recorded as 5 (Herbicidal rate of 90% or more (almost completely withered)). Also, the “herbicidal effect on barnyard grass (H)” value in assay [3] was 5 (Herbicidal rate of 90% or more (almost completely withered)). Also, the “F: southern crabgrass” value in assay [4] and in assay [10] was 0 (Herbicidal rate of 5% or less (almost no effect)) each time. The “Herbicidal effect, C” value in [5] was 2 (Herbicidal rate of 20% or more and less than 40%). The “R: persian speedwell” value in assay [6] was 5 (Herbicidal rate of 90% or more (almost completely withered)). Besides, the “J: blackgrass, herbicidal effect grade” value is 5 (Herbicidal rate of 90% or more (almost completely withered)) in assay [7]; 3 (Herbicidal rate of 40% or more and less than 70%) in assay [16]. Further, the “H: barnyard grass” value in assay [8] is 4 (Herbicidal rate of 70% or more and less than 90%). Besides, the “N: redroot pigweed” value in assay [9] was 4 (Herbicidal rate of 70% or more and less than 90%). Further, the “K: Italian ryegrass” value in [11] is 1 (Herbicidal rate of 5% or more and less than 20%). Moreover, the “O: lambsquarters” value in [12] is 4 (Herbicidal rate of 70% or more and less than 90%). Further, the “herbicidal effect … (D)” value in assay [13] was 3 (Herbicidal rate of 40% or more and less than 70%). Further, the “Herbicidal effect, B: Japanese bulrush” value in assay [15] was 1 (Herbicidal rate of 5% or more and less than 20%).
For `CCCOc1ccc2c(-c3c(O)c(C)nn(C)c3=O)c(-c3ccccc3OC)sc2c1` [3-099], the “I: wild oat, herbicidal effect grade” value was 0 (Herbicidal rate of 5% or less (almost no effect)) in assay [1]; 2 (Herbicidal rate of 20% or more and less than 40%) in [14]. The “L: windgrass, herbicidal effect grade” value in assay [2] is reported as 5 (Herbicidal rate of 90% or more (almost completely withered)). In addition, in [3], the “herbicidal effect on barnyard grass (H)” value is reported as 5 (Herbicidal rate of 90% or more (almost completely withered)). Moreover, the “F: southern crabgrass” value in [4] and in assay [10] was 5 (Herbicidal rate of 90% or more (almost completely withered)) throughout. Also, the “Herbicidal effect, C” value in [5] was 5 (Herbicidal rate of 90% or more (almost completely withered)). Also, in assay [6], the “R: persian speedwell” value is recorded as 5 (Herbicidal rate of 90% or more (almost completely withered)). The “J: blackgrass, herbicidal effect grade” value in assay [7] is 5 (Herbicidal rate of 90% or more (almost completely withered)); in assay [16], 4 (Herbicidal rate of 70% or more and less than 90%). Further, the “H: barnyard grass” value in [8] is given as 5 (Herbicidal rate of 90% or more (almost completely withered)). Besides, in assay [9], the “N: redroot pigweed” value is listed as 5 (Herbicidal rate of 90% or more (almost completely withered)). Moreover, the “K: Italian ryegrass” value in assay [11] is 5 (Herbicidal rate of 90% or more (almost completely withered)). Further, the “O: lambsquarters” value in [12] is listed as 5 (Herbicidal rate of 90% or more (almost completely withered)). The “herbicidal effect … (D)” value in assay [13] is given as 5 (Herbicidal rate of 90% or more (almost completely withered)). For the same compound, the “Herbicidal effect, B: Japanese bulrush” value in assay [15] is 5 (Herbicidal rate of 90% or more (almost completely withered)).
In the case of `CCCOc1ccc2c(-c3c(O)c(C)nn(C)c3=O)c(-c3ccccc3OCC)sc2c1` [3-103], the “I: wild oat, herbicidal effect grade” value was 0 (Herbicidal rate of 5% or less (almost no effect)) in [1]; 2 (Herbicidal rate of 20% or more and less than 40%) in assay [14]. Also, the “L: windgrass, herbicidal effect grade” value in assay [2] is 4 (Herbicidal rate of 70% or more and less than 90%). Moreover, the “herbicidal effect on barnyard grass (H)” value in [3] is 4 (Herbicidal rate of 70% or more and less than 90%). Further, the “F: southern crabgrass” value in [4] and in assay [10] was 5 (Herbicidal rate of 90% or more (almost completely withered)) in each case. The “Herbicidal effect, C” value in assay [5] was 5 (Herbicidal rate of 90% or more (almost completely withered)). Besides, the “R: persian speedwell” value in [6] was 5 (Herbicidal rate of 90% or more (almost completely withered)). The “J: blackgrass, herbicidal effect grade” value in assay [7] was 4 (Herbicidal rate of 70% or more and less than 90%); in [16], 3 (Herbicidal rate of 40% or more and less than 70%). For the same compound, the “H: barnyard grass” value in assay [8] is 5 (Herbicidal rate of 90% or more (almost completely withered)). The “N: redroot pigweed” value in assay [9] was 4 (Herbicidal rate of 70% or more and less than 90%). Moreover, the “K: Italian ryegrass” value in assay [11] is recorded as 5 (Herbicidal rate of 90% or more (almost completely withered)). In addition, the “O: lambsquarters” value in assay [12] was 4 (Herbicidal rate of 70% or more and less than 90%). The “herbicidal effect … (D)” value in assay [13] is listed as 5 (Herbicidal rate of 90% or more (almost completely withered)). In assay [15], the “Herbicidal effect, B: Japanese bulrush” value is reported as 5 (Herbicidal rate of 90% or more (almost completely withered)).
